Reference: PMC6019444, “Activation of the Immune-Metabolic Receptor GPR84 Enhances Inflammation and Phagocytosis in Macrophages” (Frontiers in Immunology, 2018)

Target: GPR84 (Mus musculus, UniProt Q8CIM5)
Experiment: real-time cell impedance in LPS-primed mouse BMDMs, WT versus GPR84-/-
Assay type: cell-based

Sequence of GPR84 (Q8CIM5 whole entry): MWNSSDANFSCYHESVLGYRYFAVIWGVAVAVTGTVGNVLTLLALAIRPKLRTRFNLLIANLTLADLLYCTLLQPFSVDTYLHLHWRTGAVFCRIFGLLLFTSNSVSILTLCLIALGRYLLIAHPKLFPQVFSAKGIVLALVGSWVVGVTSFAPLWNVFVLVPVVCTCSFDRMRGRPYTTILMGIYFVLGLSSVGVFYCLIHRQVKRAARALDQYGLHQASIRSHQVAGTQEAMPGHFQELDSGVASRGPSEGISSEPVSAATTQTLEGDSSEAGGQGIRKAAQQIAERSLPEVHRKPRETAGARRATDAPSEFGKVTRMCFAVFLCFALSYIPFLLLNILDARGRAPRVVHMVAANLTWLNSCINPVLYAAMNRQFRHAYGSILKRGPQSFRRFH

SMILES: CCCCCCCCNc1cc(=O)[nH]c(=O)[nH]1 [6-OAU, 6-(octylamino) pyrimidine-2,4(1H,3H)-dione]
- real-time cell impedance in LPS-primed mouse BMDMs, WT versus GPR84-/-: no response was observed when adding any dose of 6-OAU to GPR84^−/− cells
